Measured values reported in patent US20240343722A1 (VIFOR (INTERNATIONAL) AG, priority 2021, published 2024).

Assays:
ferroportin (Fpn) [1] = target: T1, ferroportin (Fpn) (Mus musculus, UniProt Q9JHI9); experiment: Hepcidin Internalization Assay (J774); assay type: cell-based; settings: Average (AVE) IC50 of multiple measurements; inhibition of TMR-hepcidin (25 nM) internalization into J774 cells
T1 construct: endogenous in cells; host or cells: J774 mouse macrophage cell line, induced with Fe(III)NTA
T1 sequence (Q9JHI9 1-570): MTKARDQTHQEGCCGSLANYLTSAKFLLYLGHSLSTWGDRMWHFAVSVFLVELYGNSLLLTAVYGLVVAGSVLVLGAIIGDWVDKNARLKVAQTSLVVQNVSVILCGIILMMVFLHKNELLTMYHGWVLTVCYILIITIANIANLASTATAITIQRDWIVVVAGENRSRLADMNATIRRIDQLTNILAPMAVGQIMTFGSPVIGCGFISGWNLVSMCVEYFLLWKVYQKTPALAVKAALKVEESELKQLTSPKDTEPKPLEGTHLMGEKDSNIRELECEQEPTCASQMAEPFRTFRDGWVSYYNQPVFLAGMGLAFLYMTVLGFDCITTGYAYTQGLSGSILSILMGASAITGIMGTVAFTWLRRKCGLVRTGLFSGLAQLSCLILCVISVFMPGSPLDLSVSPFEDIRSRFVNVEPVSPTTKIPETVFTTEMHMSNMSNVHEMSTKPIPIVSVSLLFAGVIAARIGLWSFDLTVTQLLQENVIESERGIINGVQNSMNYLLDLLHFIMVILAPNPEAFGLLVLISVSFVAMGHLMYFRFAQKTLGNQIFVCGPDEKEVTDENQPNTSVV
In short: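 Mouse J774 cells; Fpn inhibition read as reduced internalization of TMR-labelled hepcidin, imaged by fluorescence microscopy with Hoechst 33342 co-stain after fixation. IC50 from Sum(Mean) TMR signal fitted to three- or four-parameter log(inhibitor) vs. response, whichever fit better.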

ferroportin (Fpn) [2] = target: T2, ferroportin (Fpn) (Homo sapiens, UniProt Q9NP59); experiment: Inhibition of Ferroportin mediated Iron Export Activity in an Iron Response Assay (BLA reporter, HEK-293 cell line #354); assay type: cell-based; settings: HEK-293 cell line #354, BLA reporter blue/green fluorescence ratio, n=37; read-out: EC50 of hepcidin in the iron response assay
T2 construct: expressed in transfected cells; host or cells: HEK-293 cell line #354 (derivative of HEK-293 Tet-ON Advanced)
T2 sequence (Q9NP59 1-571): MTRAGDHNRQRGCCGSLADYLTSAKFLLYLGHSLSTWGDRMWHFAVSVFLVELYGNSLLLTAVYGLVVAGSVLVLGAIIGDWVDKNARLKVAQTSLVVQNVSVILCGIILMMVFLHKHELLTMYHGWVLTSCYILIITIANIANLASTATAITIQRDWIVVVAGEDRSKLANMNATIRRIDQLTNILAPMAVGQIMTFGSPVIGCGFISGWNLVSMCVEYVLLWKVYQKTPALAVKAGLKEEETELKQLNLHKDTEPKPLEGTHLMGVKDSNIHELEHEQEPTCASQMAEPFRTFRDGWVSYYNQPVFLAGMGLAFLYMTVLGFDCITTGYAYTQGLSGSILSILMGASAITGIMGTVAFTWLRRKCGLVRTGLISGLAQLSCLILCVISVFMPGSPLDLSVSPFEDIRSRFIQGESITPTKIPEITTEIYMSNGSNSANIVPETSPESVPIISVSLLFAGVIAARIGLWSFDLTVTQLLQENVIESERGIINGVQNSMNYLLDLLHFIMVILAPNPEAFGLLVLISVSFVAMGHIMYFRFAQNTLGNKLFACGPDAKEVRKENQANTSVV
Text: Intracellular iron levels are indirectly measured in this assay by monitoring the activity of a beta-lactamase (BLA) reporter gene fused to the human ferritin promoter and the associated iron regulatory element (IRE) contained within the 5′ untranslated region of the ferritin mRNA. Expression of ferroportin (Fpn) in such a cell line leads to iron efflux and lower iron levels as reflected by lower activity of the reporter gene. On the other hand, inhibition of Fpn-mediated iron efflux results in elevated cellular iron levels which is detected as increased reporter gene activity.

SMILES | IC50 (ferroportin (Fpn) [1]) [nM] | EC50 (ferroportin (Fpn) [2]) [nM]
COc1cccc(-n2c(CCNCCc3nc(C(=O)NCc4ncccc4OC)co3)nc3cc4c(cc32)OCCO4)c1 [Example 93, 2-(2-((2-(1-(3-methoxyphenyl)-6,7-dihydro-1 H-[1,4]dioxino[2′,3′:4,5]benzo[1,2-d]imidazol-2-yl)ethyl)amino)ethyl)-N-((3-methoxypyridin-2-yl)methyl)oxazole-4-carboxamide] | 3 | –
O=C(NCc1ncccc1F)c1coc(CCNCCc2nc3cc4c(cc3n2CCc2ncco2)OCCO4)n1 [Example 94, N-((3-fluoropyridin-2-yl)methyl)-2-(2-((2-(1-(2-(oxazol-2-yl)ethyl)-6,7-dihydro-1 H-[1,4]dioxino[2′,3′:4,5]benzo[1,2-d]imidazol-2-yl)ethyl)amino)ethyl)oxazole-4-carboxamide] | 365 | –
COc1cccnc1CNC(=O)c1coc(CCNCCc2nc3cc4c(cc3n2CCc2ncco2)OCCO4)n1 [Example 95, N-((3-methoxypyridin-2-yl)methyl)-2-(2-((2-(1-(2-(oxazol-2-yl)ethyl)-6,7-dihydro-1 H-[1,4]dioxino[2′,3′:4,5]benzo[1,2-d]imidazol-2-yl)ethyl)amino)ethyl)oxazole-4-carboxamide] | 26 | –
COCCn1c(C2CN(CCc3nc(C(=O)NCc4ncccc4F)co3)C2)nc2ccccc21 [Example 96, N-((3-fluoropyridin-2-yl)methyl)-2-(2-(3-(1-(2-methoxyethyl)-1H-benzo[d]imidazol-2-yl)azetidin-1-yl)ethyl)oxazole-4-carboxamide] | 223 | –
CN(C)CCn1c(C2CN(CCc3nc(C(=O)NCc4ncccc4F)co3)C2)nc2ccccc21 [Example 97, 2-(2-(3-(1-(2-(dimethylamino)ethyl)-1H-benzo[d]imidazol-2-yl)azetidin-1-yl)ethyl)-N-((3-fluoropyridin-2-yl)methyl)oxazole-4-carboxamide] | 89 | –
CC[C@H](C)[C@@H]1NC(=O)[C@@H](NC(=O)[C@@H](NC(=O)[C@@H]2CCCN2C(=O)[C@H](Cc2ccccc2)NC(=O)[C@H](Cc2c[nH]cn2)NC(=O)[C@@H](NC(=O)[C@@H](N)CC(=O)O)[C@@H](C)O)[C@@H](C)CC)CSSC[C@@H](C(=O)N[C@@H](CCCCN)C(=O)N[C@H](C(=O)O)[C@@H](C)O)NC(=O)[C@@H]2CSSC[C@@H]3NC(=O)[C@@H]4CSSC[C@H](NC(=O)[C@H](Cc5ccccc5)NC1=O)C(=O)N[C@@H](CSSC[C@H](NC(=O)[C@H](CCCCN)NC(=O)[C@H](CO)NC(=O)[C@H](CCCNC(=N)N)NC(=O)[C@H](Cc1c[nH]cn1)NC3=O)C(=O)NCC(=O)N[C@@H](CCSC)C(=O)N2)C(=O)NCC(=O)N4 [hepcidin] | – | ~96
